Where two headings read alike, the source gives them in different places.
Key:
HER2 TK = HER2 TK (Homo sapiens, UniProt P04626); assay: ELISA of biotinylated peptide phosphorylation; type: biochemical
HER1 TK = HER1 TK (Homo sapiens, UniProt P00533); assay: ELISA of biotinylated peptide phosphorylation; type: biochemical; settings: 20 µM ATP; 1.5 µM peptide substrate; 5 mM MgCl2; 5 mM MnCl2; HEPES pH 7.5; 23 °C

IC50 (HER2 TK) [nM] | IC50 (HER2 TK; 20 µM ATP, 1.5 µM peptide substrate, 5 mM MgCl2, 5 mM MnCl2, HEPES pH 7.5, 23 °C) [nM] | IC50 (HER1 TK) [nM] | Molecule
590 |  |  | COc1cc(/C=C(\C#N)C(N)=O)cc(CSc2nc3ccccc3s2)c1O [AG-825]
 | 160 | 330 | 4-trifluoromethylcinnamoyl pyrone [2e]
